Test results taken from patent EP0357369B1, “The use of asymetric membranes in delivery devices” (priority 1988, dated 1990).
Converted amounts (≈) assume the structure as drawn. Where two headings read alike, the source gives them in different places.

How the values were obtained:
[1] = Drug solubility in receptor solutions and excipient solutions; format: physicochemical
[2] = Osmotic pressure of saturated solutions of drug and excipients; format: physicochemical; conditions: saturated solution of the labelled drug or of drug and the other tablet excipients; also printed as about 3 atm

Row | solubility ([1]; aqueous buffer, gastric buffer pH 1.5, read-out: Doxazosin solubility in the gastric buffer) [µg/mL] | solubility ([1]; aqueous buffer, intestinal buffer pH 7.5, read-out: Doxazosin solubility in the intestinal buffer) [µg/mL] | solubility ([1]; dextrose solutions adjusted to pH 4 with tartaric acid, read-out: doxazosin solubility in all the dextrose solutions) [µg/mL] | solubility ([1]; water, same in lactose and dextrose solutions adjusted to pH 4 with tartaric acid, read-out: doxazosin solubility in water) [µg/mL] | Trimazosin solubility lower in a saturated calcium lactate solution than in water [1] | solubility of trimazosin ([1]; water and 4 wt% magnesium sulfate solution) | osmotic pressure of a saturated solution [2] | Structure (SMILES) | solubility of trimazosin in the magnesium sulfate solution ([1]; 2.4-wt% magnesium sulfate solution compared with water)
1 | ~250 (≈ 0.554 mM) | < 10 | ~10000 (≈ 22.1 mM) | 10000 (≈ 22.1 mM) |  |  |  | COc1cc2nc(N3CCN(C(=O)C4COc5ccccc5O4)CC3)nc(N)c2cc1OC (centres unmarked) [doxazosin] | 
2 |  |  |  |  | about 40% | the same in both solutions | about 304 kPa | COc1cc2c(N)nc(N3CCN(C(=O)OCC(C)(C)O)CC3)nc2c(OC)c1OC [trimazosin] | the same as the trimazosin solubility in water
